Measurements reported in publication PMC4376724, “Differential Phenotypic and Functional Profiles of TcCA-2 -Specific Cytotoxic CD8^+ T Cells in the Asymptomatic versus Cardiac Phase in Chagasic Patients” (PLoS ONE, 2015).

Columns and labels:
[1] = target: HLA-A*02:01 (Homo sapiens, UniProt P04439, D140Y/D185E/D98H/E176V/E277Q/G131W/G231S/I119V/I121R/I166T/I218V/L300P/L318F/N151K/N90K/P208A/P217A/Q86G/Q94H/R138H/R169H/T345S); assay: HLA-A*02:01 binding assay (surface stabilization on TAP-deficient T2 cells); conditions: different peptide concentrations in duplicate, serum-free RPMI, overnight at room temperature, PE anti-HLA-A2 (BB7.2) flow cytometry, referred to 25 μM HB-ENV335-343 peptide
Method: TAP-deficient T2 cells were used for the HLA-A*02:01 binding assays and the K562-A2 cells for the HLA-A*02:01 restriction assay. The cells were cultured in complete RPMI medium supplemented with 10% of inactivated Fetal Calf Serum (iFCS), 2 mM glutamine, and 100 U/ml penicillin. K562-A2 cells, expressing the HLA-A*02:01 molecule were cultured in the presence of […] of G-418, as previously described. The T2 and K562-A2 cells were kindly provided by Dr. Pedro Romero (University of Lausanne) and by Dr Peter Ponsaerts (University of Antwerp, with the permission of Dr. Cedrik Britten from Johanes Gutenberg-University Mainz), respectively.
HLA-A*02:01 surface stabilization test was carried out as described in [42]. Briefly, TAP-deficient T2 cells were loaded with different concentrations of each peptide, in duplicate in serum-free RPMI medium, and incubated overnight at room temperature. Afterwards, the cells were stained with a PE-labeled HLA-A2-specific antibody (BB7.2 clone, BD biosciences) and analyzed by flow cytometry. The high-affinity HLA-A*02:01-binding peptide […] ([…]) was included as internal standard. Affinity data were calculated as the percentage of maximum complex stabilization, as described in [44]. The following equation was used: % of maximal stabilization = 100 x [(mean fluorescence with peptide)–(background mean fluorescence)]/[(mean fluorescence with 25 μM HBENV335-343 peptide)–(background mean fluorescence)]. Background value was obtained with cells incubated in the same conditions without peptide.
The percentage of maximal binding stabilization of these eight TcCA-2 peptides was evaluated using TAP-deficient T2 cells and different concentrations of each peptide. […] The maximal binding affinity is shown for each peptide in Table 1.

[2] = tested on: PBMCs from asymptomatic HLA-A*02:01 Chagas disease patients; assay: HLA-A*02:01 restriction assay: peptide-pulsed K562-A2 cells as APC, IFN-γ secretion by patient PBMC; type: cell-based, human; conditions: K562-A2 cells pulsed with 1 mM peptide 1 h, co-cultured 30 h with PBMC of asymptomatic (IND) patients; positive = IFN-γ at least two folds un-stimulated cells

| Sequence | % maximal stabilization [1] | Chagas disease patient: patients with positive response in relation with the total number of patients per assay [2] |
| --- | --- | --- |
| SAFGNHASTV [TcCA-2_550-559] | 19.07% | 0/9 |
| FANAPGVAQV [TcCA-2_452-461] | 46.23% | 0/10 |
| SILQNVHATL [TcCA-2_489-498] | 36.02% | 0/8 |
| AIGGGKLPAL [TcCA-2_531-540] | 20.89% | 0/9 |
